ChEMBL document CHEMBL5360560, “Anti-Vibrio potential of natural products from marine microorganisms” (Eur J Med Chem, 2023)
In brackets after ≈: the same amount, converted by molar mass.

Columns and labels:
[1] = test system: Vibrio alginolyticus; experiment: Antimicrobial activity against Vibrio alginolyticus assessed as zone of inhibition; format: functional
[2] = test system: Vibrio parahaemolyticus; experiment: Antimicrobial activity against Vibrio parahaemolyticus assessed as zone of inhibition; format: functional
[3] = test system: Vibrio alginolyticus; experiment: Antimicrobial activity against Vibrio alginolyticus assessed as bacterial growth inhibition; format: functional
[4] = test system: Vibrio parahaemolyticus; experiment: Antimicrobial activity against Vibrio parahaemolyticus ATCC 17802 assessed as bacterial growth inhibition by microplate reader assay; format: functional
[5] = test system: Vibrio parahaemolyticus; experiment: Antimicrobial activity against Vibrio parahaemolyticus assessed as bacterial growth inhibition by MTT assay; format: functional
[6] = test system: Vibrio vulnificus; experiment: Antimicrobial activity against Vibrio vulnificus assessed as bacterial growth inhibition by MTT assay; format: functional
[7] = test system: Vibrio anguillarum; experiment: Antimicrobial activity against Vibrio anguillarum assessed as zone of inhibition in diameter per disk at 50 ug; format: functional; conditions: read-out: IZ
[8] = test system: Vibrio harveyi; experiment: Antimicrobial activity against Vibrio harveyi assessed as zone of inhibition in diameter per disk at 50 ug; format: functional; conditions: read-out: IZ
[9] = test system: Vibrio parahaemolyticus; experiment: Antimicrobial activity against Vibrio parahaemolyticus assessed as zone of inhibition in diameter per disk at 50 ug; format: functional; conditions: read-out: IZ
[10] = test system: Vibrio splendidus; experiment: Antimicrobial activity against Vibrio splendidus assessed as zone of inhibition in diameter per disk at 50 ug; format: functional; conditions: read-out: IZ
[11] = test system: Vibrio brasiliensis; experiment: Antimicrobial activity against Vibrio brasiliensis assessed as bacterial growth inhibition; format: functional
[12] = test system: Vibrio mediterranei; experiment: Antimicrobial activity against Vibrio mediterranei assessed as bacterial growth inhibition; format: functional
[13] = test system: Vibrio harveyi; experiment: Antimicrobial activity against Vibrio harveyi BB120 assessed as bacterial growth inhibition by bioluminescence based Quorum-Sensing assay; format: functional, organism-based
[14] = test system: Vibrio anguillarum; experiment: Antimicrobial activity against Vibrio anguillarum assessed as zone of inhibition per disc at 100 ug measured after 24 hrs by disc diffusion assay; format: functional; conditions: read-out: IZ
[15] = test system: Vibrio vulnificus; experiment: Antimicrobial activity against Vibrio vulnificus assessed as bacterial growth inhibition; format: functional
[16] = test system: Vibrio rotiferianus; experiment: Antimicrobial activity against Vibrio rotiferianus assessed as bacterial growth inhibition; format: functional
[17] = test system: Vibrio campbellii; experiment: Antimicrobial activity against Vibrio campbellii assessed as bacterial growth inhibition; format: functional
[18] = test system: Vibrio parahaemolyticus; experiment: Antimicrobial activity against Vibrio parahaemolyticus QDIO-10 assessed as bacterial growth inhibition measured after 24 hrs by microtitre plate reader assay; format: functional
[19] = test system: Vibrio anguillarum; experiment: Antimicrobial activity against Vibrio anguillarum QDIO-8 assessed as bacterial growth inhibition measured after 24 hrs by microtitre plate reader assay; format: functional
[20] = test system: Vibrio harveyi; experiment: Antimicrobial activity against Vibrio harveyi QDIO-9 assessed as bacterial growth inhibition measured after 24 hrs by microtitre plate reader assay; format: functional
[21] = test system: Vibrio ichthyoenteri; experiment: Antimicrobial activity against Vibrio ichthyoenteri assessed as bacterial growth inhibition; format: functional
[22] = test system: Vibrio anguillarum; experiment: Antimicrobial activity against Vibrio anguillarum QDIO-6 assessed as bacterial growth inhibition by microtiter plate assay; format: functional
[23] = test system: Vibrio parahaemolyticus; experiment: Antibacterial activity against Vibrio parahaemolyticus assessed as bacterial growth inhibition by agar dilution method; format: functional
[24] = test system: Vibrio parahaemolyticus; experiment: Antimicrobial activity against Vibrio parahaemolyticus assessed as bacterial growth inhibition; format: functional
[25] = test system: Vibrio cholerae; experiment: Antimicrobial activity against Vibrio cholerae assessed as bacterial growth inhibition; format: functional
[26] = test system: Vibrio alginolyticus; experiment: Antimicrobial activity against Vibrio alginolyticus assessed as bacterial growth inhibition by microplate reader assay; format: functional
[27] = test system: Vibrio parahaemolyticus; experiment: Antimicrobial activity against Vibrio parahaemolyticus MISR 21116 assessed as bacterial growth inhibition measured after 24 hrs by broth microdilution assay; format: functional
[28] = test system: Vibrio vulnificus; experiment: Antimicrobial activity against Vibrio vulnificus MISR 20716 assessed as bacterial growth inhibition measured after 24 hrs by broth microdilution assay; format: functional
[29] = test system: Vibrio alginolyticus; experiment: Antimicrobial activity against Vibrio alginolyticus MISR 30816 assessed as bacterial growth inhibition measured after 24 hrs by broth microdilution assay; format: functional
[30] = test system: Vibrio natriegens; experiment: Antimicrobial activity against Vibrio natriegens assessed as bacterial growth inhibition; format: functional
[31] = test system: Vibrio vulnificus; experiment: Antimicrobial activity against Vibrio vulnificus MCCC E1758 assessed as bacterial growth inhibition by resazurin dye based assay; format: functional
[32] = test system: Vibrio vulnificus; experiment: Antimicrobial activity against Vibrio vulnificus MCCC E333 assessed as bacterial growth inhibition by resazurin dye based assay; format: functional
[33] = test system: Vibrio anguillarum; experiment: Antimicrobial activity against Vibrio anguillarum assessed as bacterial growth inhibition; format: functional
[34] = test system: Vibrio harveyi; experiment: Antimicrobial activity against Vibrio harveyi assessed as bacterial growth inhibition; format: functional
[35] = test system: Vibrio anguillarum; experiment: Antimicrobial activity against Vibrio anguillarum assessed as zone of inhibition; format: functional
[36] = test system: Vibrio harveyi; experiment: Antimicrobial activity against Vibrio harveyi assessed as zone of inhibition; format: functional
[37] = test system: Vibrio splendidus; experiment: Antimicrobial activity against Vibrio splendidus assessed as zone of inhibition; format: functional

O=C1N[C@H](Cc2ccccc2)C(=O)N2C[C@@H](O)C[C@@H]12
inhibition zone (IZ) [1]: 20 mm
inhibition zone (IZ) [2]: 12 mm

C[C@]12CC[C@H](O)[C@](C)(CO)[C@@H]1CC[C@]1(C)[C@@H]2C[C@@H](O)[C@@H]2[C@@]3(C)CC[C@H]([C@](C)(O)CO)[C@@H]3CC[C@]21C
MIC [3]: 16 µg/mL (≈ 32.5 µM)

O=C1c2cc(O)cc(O)c2C(=O)c2c1cc(O)c(C(CO)CCO)c2O (stereo unspecified)
MIC [4]: 12 µg/mL

CC(=O)c1ccccc1C[C@@H](O)/C=C/CC(=O)O[C@@H]1/C=C/C=C\C[C@H](O)C[C@@H](O)/C=C/C=C/CCC[C@@H](C)OC(=O)/C=C\C=C\C1
MIC [5]: 3.12 µg/mL (≈ 4.93 µM)
MIC [6]: 3.12 µg/mL (≈ 4.93 µM)

Cc1cc(O)cc(O)c1-c1cc2cc(O)cc(O)c2c(=O)o1
zone of inhibition at 50 µg/disc [7]: 7 mm
zone of inhibition at 50 µg/disc [8]: 7 mm
zone of inhibition at 50 µg/disc [9]: 7 mm
zone of inhibition at 50 µg/disc [10]: 7 mm

CC(C)[C@@H](C)/C=C/[C@@H](C)[C@H]1CC[C@@H]2[C@]1(C)CCC1[C@@]23OO[C@]2(C=C3O)C[C@@H](O)CC[C@]12C (stereo partly specified)
MIC [11]: 32 µg/mL (≈ 72 µM)
MIC [12]: 8 µg/mL (≈ 18 µM)

CCOC(=O)C[C@H](O)COC(=O)/C=C/CCl
IC50 [13]: 17.6 µM

O=C1N[C@](O)(Cc2ccccc2)C(=O)N2CCC[C@H]12
zone of inhibition at 100 µg/disc [14]: 20 mm

CC(C)[C@@H](C)/C=C/[C@@H](C)[C@H]1CC[C@H]2C3=CC(=O)[C@@]45C[C@@H](O)CC[C@]4(C)[C@]3(CC[C@]12C)O5
MIC [11]: 16 µg/mL (≈ 37.5 µM)

COC(OC)c1ccc2c(c1O)C(=O)c1ccccc1C2=O
MIC [15]: 15.6 µg/mL (≈ 52.3 µM)
MIC [16]: 15.6 µg/mL (≈ 52.3 µM)
MIC [17]: 15.6 µg/mL (≈ 52.3 µM)

CCCCCC(=O)NCCc1ccccc1
IC50 [13]: 99 µM

COC(=O)c1ccc([C@](C)(O)CCCC(C)(C)O)c(O)c1
MIC [18]: 4 µg/mL (≈ 13.5 µM)
MIC [19]: 4 µg/mL (≈ 13.5 µM)
MIC [20]: 4 µg/mL (≈ 13.5 µM)

Cc1cc(O)cc(Oc2cc(C)cc(O)c2O)c1 [CORDYOL C]
MIC [21]: 40 µg/mL (≈ 162 µM)

C[C@@H]1CCCCC2=C(O)C(=O)C[C@H]2C(=O)O1
MIC [22]: 2 µg/mL

COC(=O)/C=C/C=C/C(=O)N[C@H]1CCCNC(=O)[C@H](C)N(C)C(=O)[C@H](C(C)C)N(C)C1=O
MIC [23]: 6.25 µM (≈ 2.82 µg/mL)

Cc1cc(O)cc(Oc2cc(C)cc(O)c2)c1 [DIORCINOL]
MIC [21]: 40 µg/mL (≈ 174 µM)

COC(=O)C[C@H](O)COC(=O)/C=C/CCl
IC50 [13]: 14.6 µM

O=C(O)c1ccc[nH]1
MIC [24]: 25 µg/mL (≈ 225 µM)
MIC [25]: 50 µg/mL (≈ 450 µM)

CC(C)C[C@H]1NC(=O)[C@H]2C[C@H](O)CN2C1=O
inhibition zone (IZ) [1]: 22 mm
inhibition zone (IZ) [2]: 14 mm

COc1c(Cl)c(C)c(Cl)c2c1[C@H]1c3c(O)c(C)cc(O)c3C[C@@H]1C(C)(C)O2 (racemic)
MIC [4]: 20 µM
MIC [26]: 20 µM

C[C@@H]1CCC/C=C/[C@H](O)C[C@@H](O)C/C=C\C=C\[C@@H](O)C/C=C/C=C\C(=O)O1
MIC [27]: 64 µg/mL (≈ 170 µM)
MIC [28]: 64 µg/mL (≈ 170 µM)
MIC [29]: 64 µg/mL (≈ 170 µM)

Cc1cc2c(c(=O)[nH]1)O[C@H]([C@@H](O)CC(C)C)O2
MIC [30]: 0.001 µg/mL (≈ 0.00418 µM)

Cc1c(O)c(C)c2c(c1O)C(=O)O[C@](C)(O)[C@H]2C
MIC [31]: 16.6 µg/mL (≈ 65.8 µM)
MIC [32]: 15.3 µg/mL (≈ 60.7 µM)

COC(=O)[C@H](O)CS[C@H]1CC(=O)O[C@H](C)CCCCCC[C@@H]1O
MIC [22]: 4 µg/mL

CC(C)=CCc1ccc(O)c(C=O)c1
MIC [33]: 65 µM (≈ 12.4 µg/mL)
MIC [34]: 65 µg/mL (≈ 342 µM)

O=C(O)c1cc(Cl)c[nH]1
MIC [24]: 25 µg/mL (≈ 172 µM)
MIC [25]: 100 µg/mL (≈ 687 µM)

CC(=O)CCC[C@H](C)[C@@H]1C=C[C@@](C)(O[C@H]2O[C@H](CO)[C@@H](O)[C@H](O)[C@H]2NC(C)=O)CC1
inhibition zone (IZ) [2]: 6.1 mm
MIC [35]: 6.1 µg/mL (≈ 14.3 µM)
MIC [36]: 6.1 µg/mL (≈ 14.3 µM)
MIC [37]: 6.1 µg/mL (≈ 14.3 µM)

CO[C@](C)(CCCC(C)(C)O)c1ccc(C(=O)O)cc1O
MIC [18]: 4 µg/mL (≈ 13.5 µM)
MIC [19]: 4 µg/mL (≈ 13.5 µM)
MIC [20]: 4 µg/mL (≈ 13.5 µM)
